Read-outs that look alike come from different tables or passages of the source. One block for each molecule: values may come before it.
Key:
[1] = cited from earlier work
[2] = Protonation constants by combined potentiometric-spectrophotometric titrations; format: physicochemical; conditions: 25° C., l = […] (NaCl)
Source text: The basicity of different ionizable and non-ionizable protons determine the extent of the competition between the metal ion and the protons to the binding sites of the chelator during metal complexation. Therefore, protonation constants must be considered when evaluating the chelator. […] The remaining four protonation constants were not determined as these sites deprotonated at a pH below the electrode threshold. As a result but without being bound by theory, during metal complexation which preferably occurs at or near physiological pH for pharmaceutical purposes, competition from those protonation processes would be negligible.
FIGS. 4A, 4B and 4C show the absorption bands of the species involved in the protonation equilibria mentioned above at different pH, while Table 2 presents the protonation constants calculated from the experimental data using the HypSpec2014^25 and Hyperquad2013^26 programs. The speciation plots of different species of H4py4pa in FIG. 4D were calculated from the protonation constants in Table 2 with Hyss software.^27
All potentiometric titrations were carried out with a Metrohm Titrando 809 and a Metrohm Dosino 800 with a Ross combined electrode. A 20 mL and 25° C. thermostated glass cell with an inlet-outlet tube for nitrogen gas (purified through a 10% NaOH solution to exclude any CO2 prior to and during the course of the titration) was used as a titration cell. The electrode was calibrated daily in hydrogen ion concentration by direct titration of HCl with freshly prepared NaOH solution and the results were analyzed with Gran procedure^29 in order to obtain the standard potential E° and the ionic product of water pKw at 25° C. and 0.16 M NaCl as a supporting electrolyte. Solutions were titrated with carbonate-free NaOH (0.16 M) that was standardized against freshly recrystallized potassium hydrogen phthalate.
In the study of complex formation equilibria, the determination of the stability constant of [La(H4py4pa)] species was carried out by two different methods. The first method used UV-Vis spectrophotometric measurements on a set of solutions containing 1:1 metal to ligand molar ratio ([H4py4pa]=[M]^3+˜1.33×10^−4 M) and different amounts of HCl in the spectral range 200-400 nm at 25° C. and 1 cm path length. The molar absorptivities of all the protonated species of H4py4pa calculated with HypSpec2014^25 from the protonation constant experiments were included in the calculations. […] The stability constants for the complexes formed by H4edta and La^3+ were taken from literature.^31 Direct pH-potentiometric titrations of the La^3+-H4py4pa system were also carried out. Metal solution was prepared by adding the atomic absorption (AA) standard metal ion solution to a H4py4pa solution of known concentration in the 1:1 metal to ligand molar ratio for La(III). Ligand and metal concentrations were in the range of 0.6-0.8×10^−4 M. The exact amount of acid present in the atomic standard metal solutions standards was determined by Gran's method^29 titrating equimolar solutions of La(III) and Na2H2-EDTA. […] Three replicates of each titration were performed for each system. Relying on the stability constant for the species La(Hpy4pa) obtained by the two different methods, the fitting of the direct potentiometric titrations was possible and yielding the stability constants in Table 3. All the potentiometric measurements were processed using the Hyperquad2013 software^26 while the obtained spectrophotometric data were processed with the HypSpec2014^25 program. Proton dissociation constants corresponding to hydrolysis of La(III) aqueous ion included in the calculations were taken from Baes and Mesmer.^32 The overall equilibrium (formation) constants log β referred to the overall equilibria: pM+qH+rL ⇄MpHqLr (the charges are omitted), where p might also be 0 in the case of protonation equilibria and q can be negative for hydroxide species. […]

[3] = Complex formation equilibria with La(III): stability constants and pM; format: physicochemical
[4] = ligand-ligand potentiometric competition with EDTA at l = […] (NaCl) and 25° C.
[5] = potentiometric titrations at l = […] (NaCl) and 25° C.

SMILES: O=C(O)c1cccc(CN2CCOCCOCCN(Cc3cccc(C(=O)O)n3)CCOCCOCC2)n1 [Compound H2macropa, N,N′-bis[(6-carboxy-2-pyridil)methyl]-4,13-diaza-18-crown-6]
- log K[La(macropa)] ([1]; 25° C., l=0.1 M (KCl)): 14.99

- log K, H2L^2− + H^+ ⇌ H3L^− (pK9) [2]: 4.06 (2)
- log K, H3L^− + H+ ⇌ H4L (pK8) [2]: 3.58 (2)
- log K, H4L + H^+ ⇌ H5L^+ (pK7) [2]: 2.71 (3)
- log K, H5L^+ + H^+ ⇌ H6L^2+ (pK6) [2]: 2.55 (4)
- log K, H6L^2+ + H^+ ⇌ H7L^3+ (pK5) [2]: 2.31 (4)
- log K, HL^3− + H^+ ⇌ H2L^2− (pK10) [2]: 6.07 (1)
- log K, L^4− + H^+ ⇌ HL^3− (pK11) [2]: 6.96 (1)
- log β, H2L^2− + H^+ ⇌ H3L^− [2]: 17.09 (2)
- log β, H3L^− + H+ ⇌ H4L [2]: 20.67 (2)
- log β, H4L + H^+ ⇌ H5L^+ [2]: 23.38 (3)
- log β, H5L^+ + H^+ ⇌ H6L^2+ [2]: 25.93 (4)
- log β, H6L^2+ + H^+ ⇌ H7L^3+ [2]: 28.24 (4)
- log β, HL^3− + H^+ ⇌ H2L^2− [2]: 13.03 (1)
- log β, L^4− + H^+ ⇌ HL^3− [2]: 6.96 (1)
- pM (La^3+) ([3]; -log [M]free at [L] = 10 μM, [M] = 1 μM and pH = 7.4): 21.0
- log K, ML + H^+ ⇌ MHL ([3]; in-batch acidic spectrophotometric competition at 25° C., not evaluated at constant l): 4.01(5)
- log K, M(OH)L + H^+ ⇌ ML [3, 4]: 9.94(3)
- log K, ML + H^+ ⇌ MHL [3, 4]: 3.78(4)
- log K, M^3+ + L ⇌ ML [3, 4]: 20.37(2)
- log K, M(OH)L + H^+ ⇌ ML [3, 5]: 9.96(4)
- log K, M^3+ + L ⇌ ML [3, 5]: 20.33(3)
SMILES: O=C(O)c1cccc(CN(Cc2cccc(CN(Cc3cccc(C(=O)O)n3)Cc3cccc(C(=O)O)n3)n2)Cc2cccc(C(=O)O)n2)n1 [Compound H4py4pa]

SMILES: O=C(O)CN1CCN(CC(=O)O)CCN(CC(=O)O)CCN(CC(=O)O)CC1 [DOTA, 1,4,7,10-tetraazacyclododecane-1,4,7,10-tetraacetic acid]
- log K[La(DOTA)] ([1]; 25° C.): 24.25
- pM (La^3+) ([1]; -log [M]free at [ligand]=10 μM, [M]=1 μM, pH=7.4): 19.2
